Values after ≈ are worked out from the molar mass of the structure shown.
Experiments:
All Candida isolates = test: Comparative in vitro MIC, isolate panel; format: cell-based
From the text: (§1) The in-vitro evaluation of the antifungal activity of the compounds can be performed by determining the minimum inhibitory concentration (MIC) as shown in Table 1 which is the concentration of the test compound in Rosewell Park Memorial Institute (RPMI) 1640 liquid medium buffered with 3-(Morpholino)propanesulphonic acid (MOPS) to pH 7, at which there is significant inhibition of the particular fungi. In practice the National Committee for Clinical Laboratory Standard (NCCLS) M27A document for Candida and Cryptococcus and M38P for Aspergillus was used to determine the MIC against yeast and filamentous fungi with suitable modifications for dermatophytes to other filamentous fungi. Three quality control strains were included each time the MIC were determined and readings recorded only when the Quality Control results fell into the acceptable range. After MIC results had been recorded, 100 μl from each of the well showing no growth was spread over Sabouraud Dextrose Agar (SDA) to determine the minimum fungicidal concentration (MFC) as shown in Table 2.
(§2) A comparative in vitro and in vivo biologically activity data of the compound of our invention, 2-{[1R,2R]-2-(2,4-Difluorophenyl)-2-hydroxy-1-methyl-3-(1H-1,2,4-triazole-1-yl)propyl}-4-[(2′,2′,3′,3′-tetrafluoropropoxyphenyl)-3-(2H,4H)-1,2,4-thiotriazolone (Compound No. 3) with 2-[(1R,2R)-2-(2,4-difluorophenyl)-2-hydroxy-1-methyl-3-(1H-1,2,4-triazol-1-yl)propyl]-4-(2′,2′,3′,3′-tetraflouropropoxyphenyl)-3(2H,4H)-1,2,4-triazolone (TAK 187) and standard antifungal pharmaceuticals is given below: […]

All Filamentous isolates = test: Comparative in vitro MIC, isolate panel; format: cell-based
From the text: as §1, §2

All fungal pathogens = test: Comparative in vitro MIC, isolate panel; format: cell-based
From the text: as §1, §2

[1] = tested on: Aspergillus fumigatus isolates; test: Comparative in vitro MIC, isolate panel; format: cell-based
From the text: as §1, §2

Fusarium spp. isolates = test: Comparative in vitro MIC, isolate panel; format: cell-based
From the text: as §1, §2

[2] = tested on: Penicillium spp. isolates; test: Comparative in vitro MIC, isolate panel; format: cell-based
From the text: as §1, §2

Rhizoupus spp. isolates = test: Comparative in vitro MIC, isolate panel; format: cell-based
From the text: as §1, §2

T. mentagrophyte = test: Activity against dermatophytes; format: cell-based; parameters: unit not given here
From the text: as §1, §2

T. rubrum = test: Activity against dermatophytes; format: cell-based; parameters: unit not given here
From the text: as §1, §2

Aspergillus fumigatous = test: In vivo anti-fungal activity, ED50 in systemically infected mice; parameters: species or system Swiss albino mice; conditions: mice infected i.v. with Aspergillus fumigatous, dosing for five days
Description: The in-vivo evaluation of the compound can be carried out at a series of dose levels by oral or I. V. injection to mice which are inoculated I.V. with the minimum lethal dose of Candida albicans, Cryptococcus neoformans or Aspergillus fumigatus by the tail vein. Activity is based on the survival of a treated group of mice after the death of an untreated group of mice. For Aspergillus and Cryptococcus infections, target organs were cultured after treatment to document the number of mice cured of the infection for further assessment of activity.
Method: Briefly, Swiss albino mice weighing 20±2 G were injected intravenously (tail vein) with sufficient fungal cells to kill 100% of the untreated animals for Aspergillus fumigatous strain used. In all cases each group comprised of six mice. Five does levels, utilizing doubling dilution range, were employed per determination ranging from 25 to 1.56 mg/kg BW. Dosing was carried out for five days starting after 30 minutes of infection. […] Treated animals were monitored twice daily for 14 days post infection at which time the experiment was terminated and ED50 was calculated.

[3] = tested on: filamentous species of fungi; test: Activity against filamentous fungi (statement in words); format: cell-based
From the text: as §1

[4] = serum drug concentration after several days of treatment 25 to 100 times above the MIC for C. neoformans; cited from earlier work

## C[C@@H](n1ncn(-c2ccc(OCC(F)(F)C(F)F)cc2)c1=S)[C@](O)(Cn1cncn1)c1ccc(F)cc1F [Compound No. 3]
All Candida isolates
  MIC50: 0.5 µg/mL (≈ 0.895 µM)
  MIC90: 1 µg/mL (≈ 1.79 µM)
  MIC G.M.: 0.1 µg/mL (≈ 0.179 µM)
All Filamentous isolates
  MIC50: 0.25 µg/mL (≈ 0.448 µM)
  MIC90: 8 µg/mL (≈ 14.3 µM)
  MIC G.M.: 0.328 µg/mL (≈ 0.587 µM)
All fungal pathogens
  MIC50: 0.25 µg/mL (≈ 0.448 µM)
  MIC90: 2 µg/mL (≈ 3.58 µM)
  MIC G.M.: 0.285 µg/mL (≈ 0.51 µM)
[1]
  MIC50: 0.125 µg/mL (≈ 0.224 µM)
  MIC90: 0.25 µg/mL (≈ 0.448 µM)
  MIC G.M.: 0.112 µg/mL (≈ 0.201 µM)
Fusarium spp. isolates
  MIC50: 8 µg/mL (≈ 14.3 µM)
  MIC90: 8 µg/mL (≈ 14.3 µM)
  MIC G.M.: 8 µg/mL (≈ 14.3 µM)
[2]
  MIC50: 2 µg/mL (≈ 3.58 µM)
  MIC90: 8 µg/mL (≈ 14.3 µM)
  MIC G.M.: 1.516 µg/mL (≈ 2.71 µM)
Rhizoupus spp. isolates
  MIC50: 0.125 µg/mL (≈ 0.224 µM)
  MIC90: 0.125 µg/mL (≈ 0.224 µM)
  MIC G.M.: 0.125 µg/mL (≈ 0.224 µM)
T. mentagrophyte
  Activity against dermatophytes: 0.016
T. rubrum
  Activity against dermatophytes: 0.004
Aspergillus fumigatous; Day 7 post infection
  ED50: 2.33 mg/kg body weight
Aspergillus fumigatous; Day 14 post infection
  ED50: 6.25 mg/kg body weight
[3]
  activity against clinically important filamentous species of fungi: unexpectedly potent activity
[3]; b38: against some filamentous fungi
  fungicidal character: fungicidal

## CN(C/C=C/C#CC(C)(C)C)Cc1cccc2ccccc12 [Terbina]
T. mentagrophyte
  Activity against dermatophytes: 0.002
T. rubrum
  Activity against dermatophytes: 0.016

## CC[C@@H]([C@H](C)O)n1ncn(-c2ccc(N3CCN(c4ccc(OC[C@@H]5CO[C@@](Cn6cncn6)(c6ccc(F)cc6F)C5)cc4)CC3)cc2)c1=O [SCH 56592]
[4]
  detectability in CSF: undetectable

Reference: patent publication US6710049B2, “Azole compounds as anti-fungal agents” (Ranbaxy Laboratories Limited, priority 2000, dated 2004)
